In patent US20120094998A1, “Oligomer-Protein Tyrosine Kinase Inhibitor Conjugates” (Nektar Therapeutics, priority 2009, published 2012):
≈ marks a conversion by molar mass, not a printed value.

Key:
ABL = ABL (Homo sapiens, UniProt P00519); assay: Off-chip mobility-shift kinase assay (Caliper LABCHIP), ABL; details: for ABL AVG % Activity at 1.0E−06: concentration 1.0E−06; for ABL AVG % Activity at 1.0E−06 / ABL AVG % Activity at 1.0E−07 / ABL AVG % Activity at 1.0E−08 / ABL AVG % Activity at 1.0E−09 / ABL AVG % Activity at 1.0E−10 / ABL AVG % Activity at 3.0E−06 / ABL AVG % Activity at 3.0E−07 / ABL AVG % Activity at 3.0E−08 / ABL AVG % Activity at 3.0E−09 / ABL AVG % Activity at 3.0E−10: imatinib-corresponding compounds; for ABL AVG % Activity at 1.0E−07: concentration 1.0E−07; for ABL AVG % Activity at 1.0E−08: concentration 1.0E−08; for ABL AVG % Activity at 1.0E−09: concentration 1.0E−09; for ABL AVG % Activity at 1.0E−10: concentration 1.0E−10; for ABL AVG % Activity at 3.0E−06: concentration 3.0E−06; for ABL AVG % Activity at 3.0E−07: concentration 3.0E−07; for ABL AVG % Activity at 3.0E−08: concentration 3.0E−08; for ABL AVG % Activity at 3.0E−09: concentration 3.0E−09; for ABL AVG % Activity at 3.0E−10: concentration 3.0E−10
Sequence of ABL (P00519 whole entry): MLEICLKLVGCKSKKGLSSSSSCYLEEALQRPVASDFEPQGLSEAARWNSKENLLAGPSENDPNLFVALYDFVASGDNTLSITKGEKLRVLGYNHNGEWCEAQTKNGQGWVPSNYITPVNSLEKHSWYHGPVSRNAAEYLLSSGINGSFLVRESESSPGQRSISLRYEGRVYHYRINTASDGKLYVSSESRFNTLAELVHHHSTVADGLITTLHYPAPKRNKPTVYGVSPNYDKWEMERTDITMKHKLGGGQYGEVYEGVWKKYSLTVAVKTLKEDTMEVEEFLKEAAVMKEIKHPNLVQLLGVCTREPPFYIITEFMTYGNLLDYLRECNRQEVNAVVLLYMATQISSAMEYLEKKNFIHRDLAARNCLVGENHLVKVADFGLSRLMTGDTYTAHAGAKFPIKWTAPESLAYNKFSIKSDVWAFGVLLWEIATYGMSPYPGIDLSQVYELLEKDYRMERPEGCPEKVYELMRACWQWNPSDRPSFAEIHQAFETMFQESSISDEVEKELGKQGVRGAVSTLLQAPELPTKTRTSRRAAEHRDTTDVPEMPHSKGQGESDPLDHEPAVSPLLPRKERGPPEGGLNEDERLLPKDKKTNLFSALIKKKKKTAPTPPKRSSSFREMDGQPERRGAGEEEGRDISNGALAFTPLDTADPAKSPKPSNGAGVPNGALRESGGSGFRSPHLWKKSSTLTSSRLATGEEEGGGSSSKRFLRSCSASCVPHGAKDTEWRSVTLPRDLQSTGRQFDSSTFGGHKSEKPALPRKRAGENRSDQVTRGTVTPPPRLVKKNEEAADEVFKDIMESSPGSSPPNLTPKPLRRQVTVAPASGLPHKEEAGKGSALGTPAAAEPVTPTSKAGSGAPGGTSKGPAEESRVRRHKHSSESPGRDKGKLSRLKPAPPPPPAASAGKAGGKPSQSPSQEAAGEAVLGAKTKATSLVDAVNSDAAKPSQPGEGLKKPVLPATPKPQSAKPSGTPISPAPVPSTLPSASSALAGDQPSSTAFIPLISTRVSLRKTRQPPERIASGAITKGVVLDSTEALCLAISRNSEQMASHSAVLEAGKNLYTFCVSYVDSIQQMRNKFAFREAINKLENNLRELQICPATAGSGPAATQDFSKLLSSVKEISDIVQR

PDGFRβ = PDGFRβ (Homo sapiens, UniProt P09619); assay: Off-chip mobility-shift kinase assay (Caliper LABCHIP), PDGFR; details: for PDGFR AVG % Activity at 1.0E−06: concentration 1.0E−06; for PDGFR AVG % Activity at 1.0E−07: concentration 1.0E−07; for PDGFR AVG % Activity at 1.0E−08: concentration 1.0E−08; for PDGFR AVG % Activity at 1.0E−09: concentration 1.0E−09; for PDGFR AVG % Activity at 1.0E−10: concentration 1.0E−10; for PDGFR AVG % Activity at 3.0E−06: concentration 3.0E−06; for PDGFR AVG % Activity at 3.0E−07: concentration 3.0E−07; for PDGFR AVG % Activity at 3.0E−08: concentration 3.0E−08; for PDGFR AVG % Activity at 3.0E−09: concentration 3.0E−09; for PDGFR AVG % Activity at 3.0E−10: concentration 3.0E−10
Sequence of PDGFRβ (P09619 33-1106): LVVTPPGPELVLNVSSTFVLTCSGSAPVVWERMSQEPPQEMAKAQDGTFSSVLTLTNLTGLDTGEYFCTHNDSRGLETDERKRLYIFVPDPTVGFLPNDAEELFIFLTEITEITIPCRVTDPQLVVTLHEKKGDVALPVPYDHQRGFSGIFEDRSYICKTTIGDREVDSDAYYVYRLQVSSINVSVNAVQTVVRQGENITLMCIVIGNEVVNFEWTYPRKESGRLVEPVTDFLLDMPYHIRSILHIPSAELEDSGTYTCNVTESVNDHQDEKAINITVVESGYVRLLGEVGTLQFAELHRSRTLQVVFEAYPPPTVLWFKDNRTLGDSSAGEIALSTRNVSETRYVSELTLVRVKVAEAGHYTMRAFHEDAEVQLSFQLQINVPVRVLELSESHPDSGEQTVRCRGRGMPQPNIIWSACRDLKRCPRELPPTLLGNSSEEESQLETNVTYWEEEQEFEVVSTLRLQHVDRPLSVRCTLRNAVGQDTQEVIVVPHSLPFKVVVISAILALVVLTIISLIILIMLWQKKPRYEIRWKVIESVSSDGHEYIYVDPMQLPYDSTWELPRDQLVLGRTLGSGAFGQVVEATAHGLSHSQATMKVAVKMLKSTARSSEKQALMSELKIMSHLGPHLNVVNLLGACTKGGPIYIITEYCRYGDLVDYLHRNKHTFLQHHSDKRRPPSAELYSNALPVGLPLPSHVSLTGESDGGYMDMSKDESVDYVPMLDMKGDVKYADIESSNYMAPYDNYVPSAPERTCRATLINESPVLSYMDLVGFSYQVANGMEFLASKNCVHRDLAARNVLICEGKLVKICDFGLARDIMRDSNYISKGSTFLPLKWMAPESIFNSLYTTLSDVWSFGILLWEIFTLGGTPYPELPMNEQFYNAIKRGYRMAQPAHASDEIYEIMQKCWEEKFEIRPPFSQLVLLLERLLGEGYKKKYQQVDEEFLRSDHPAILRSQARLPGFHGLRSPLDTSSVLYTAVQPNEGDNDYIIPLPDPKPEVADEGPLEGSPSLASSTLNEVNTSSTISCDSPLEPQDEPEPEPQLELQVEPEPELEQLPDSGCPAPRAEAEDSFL

cKIT = cKIT (Homo sapiens, UniProt P10721); assay: Off-chip mobility-shift kinase assay (Caliper LABCHIP), C-kit; details: for C-kit AVG % Activity at 1.0E−05: concentration 1.0E−05; for C-kit AVG % Activity at 1.0E−06: concentration 1.0E−06; for C-kit AVG % Activity at 1.0E−07: concentration 1.0E−07; for C-kit AVG % Activity at 1.0E−08: concentration 1.0E−08; for C-kit AVG % Activity at 3.0E−05: concentration 3.0E−05; for C-kit AVG % Activity at 3.0E−06: concentration 3.0E−06; for C-kit AVG % Activity at 3.0E−07: concentration 3.0E−07; for C-kit AVG % Activity at 3.0E−08: concentration 3.0E−08; for C-kit AVG % Activity at 3.0E−09: concentration 3.0E−09
Sequence of cKIT (P10721 26-976): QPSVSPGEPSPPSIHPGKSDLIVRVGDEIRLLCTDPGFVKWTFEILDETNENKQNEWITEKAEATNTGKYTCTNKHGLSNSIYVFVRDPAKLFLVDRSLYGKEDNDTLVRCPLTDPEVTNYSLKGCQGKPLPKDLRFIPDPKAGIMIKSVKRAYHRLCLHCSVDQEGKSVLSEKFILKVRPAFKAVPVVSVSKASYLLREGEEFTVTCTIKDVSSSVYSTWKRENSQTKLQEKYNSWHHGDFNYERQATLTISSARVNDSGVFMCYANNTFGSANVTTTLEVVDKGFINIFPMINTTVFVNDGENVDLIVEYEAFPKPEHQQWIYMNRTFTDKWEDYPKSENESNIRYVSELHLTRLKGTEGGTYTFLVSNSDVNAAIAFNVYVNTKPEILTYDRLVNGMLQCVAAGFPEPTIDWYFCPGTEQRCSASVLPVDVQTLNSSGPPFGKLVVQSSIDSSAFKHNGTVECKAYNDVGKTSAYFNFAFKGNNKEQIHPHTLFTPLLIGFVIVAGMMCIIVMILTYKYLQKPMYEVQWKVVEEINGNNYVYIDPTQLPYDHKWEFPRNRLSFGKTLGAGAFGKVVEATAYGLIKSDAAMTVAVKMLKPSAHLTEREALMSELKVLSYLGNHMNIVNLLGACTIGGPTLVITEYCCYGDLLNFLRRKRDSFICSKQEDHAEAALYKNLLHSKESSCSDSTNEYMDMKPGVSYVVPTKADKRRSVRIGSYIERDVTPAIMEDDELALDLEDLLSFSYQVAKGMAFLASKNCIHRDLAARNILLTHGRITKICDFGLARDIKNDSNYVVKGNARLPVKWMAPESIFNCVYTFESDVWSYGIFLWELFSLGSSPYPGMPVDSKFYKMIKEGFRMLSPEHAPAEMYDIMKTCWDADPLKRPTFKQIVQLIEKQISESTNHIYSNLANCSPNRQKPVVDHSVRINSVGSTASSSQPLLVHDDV

Thermodynamic solubility = assay type: physicochemical; details: aqueous buffer, thermodynamic from solid; phosphate buffered saline, pH 7.4; ambient temperature overnight
Method: Test compound (2.5 mg of solid; n=1) is weighed in a clear glass vial and buffer (0.5 mL) is added (phosphate buffered saline, pH 7.4). The solution is agitated at ambient temperature overnight using a vial roller system. […] Duplicate aliquots (50 μL) are sampled from the filtrate and diluted with one volume of 0.1 N hydrochloric acid and methanol (1:1 v/v) before analysis by HPLC-UV. […] The concentration of test compound in the filtrate is quantified relative to the concentration standard.
Analysis is performed using a gradient HPLC-UV system with a total cycle time of six minutes.

[1] = Caco-2 permeability (bi-directional; pH 7.4/pH 7.4); assay type: in vitro ADME; details: human; for Papp A→B at 120 min, 10 μM: Caco-2, pH 7.4, read-out: Permeability (cm^2/s × 10^6); for efflux ratio at 120 min, 10 μM: Caco-2, ratio of B-A and A-B permeabilities
Method: Caco-2 cells are used as an in vitro model of the human intestinal epithelium and permit assessment of the intestinal permeability of potential drugs. Test compound is added to either the apical or basolateral side of a confluent monolayer of Caco-2 cells and permeability is measured by monitoring the appearance of the test compound on the opposite side of the membrane using LC-MS/MS. Apparent permeability (Papp) coefficients, efflux ratio for the test compound and recovery values were determined.
To measure the permeability of test compound in the apical to basolateral (A-B) and basolateral to apical (B-A) direction across Caco-2 cells.
Caco-2 cells obtained from the ATCC are used between passage numbers 40-60. Cells are seeded on to Millipore Multiscreen Caco-2 plates at 1×10^5 cells/cm^2. They are cultured for 20 days in DMEM and media is changed every two or three days. On day 20 the permeability study is performed.
On day 20, the monolayers are prepared by rinsing both basolateral and apical surfaces twice with HBSS at 37° C. Cells are then incubated with HBSS in both apical and basolateral compartments for 40 min to stabilize physiological parameters. HBSS is then removed from the apical compartment and replaced with test compound dosing solutions. […] The fluorescent integrity marker lucifer yellow is also included in the dosing solution. Analytical standards are made from dosing solutions. The apical compartment inserts are then placed into ‘companion’ plates containing fresh HBSS. For basolateral to apical (B-A) permeability determination the experiment is initiated by replacing buffer in the inserts then placing them in companion plates containing dosing solutions. At 120 minutes the companion plate is removed and apical and basolateral samples diluted for analysis by LC-MS/MS. Test compound permeability was assessed in duplicate. On each plate, compounds of known permeability characteristics were run as controls.
Test and control compounds were quantified by LC-MS/MS cassette analysis using a 5-point calibration with appropriate dilution of the samples. Cyprotex generic analytical conditions were used. The starting concentration (C0) and experimental recovery were calculated from both apical and basolateral compartment concentrations.
The integrity of the monolayers throughout the experiment was checked by monitoring lucifer yellow permeation using fluorimetric analysis. Lucifer yellow permeation is low if monolayers have not been damaged. […] If lucifer yellow Papp values are above QC limits in both replicate wells for a test compound, the compound was re-tested.
Data Analysis: The permeability coefficient for each compound (Papp) is calculated from the following equation: […]
wherein dQ/dt is the rate of permeation of the drug across the cells, C0 is the donor compartment concentration at time zero and A is the area of the cell monolayer. C0 is obtained from analysis of donor and receiver compartments at the end of the incubation period. It is assumed that all of the test compound measured after 120 minutes incubation was initially present in the donor compartment at 0 minutes. An efflux ratio (ER) is derived as follows:
Talinolol (a known P-gp substrate) is also included as a control compound to assess whether functional P-gp is present in the Caco-2 cell monolayer.

| SMILES | IC50 (ABL) [nM] | ABL AVG % Activity at 1.0E−06 (ABL) [%] | ABL AVG % Activity at 1.0E−07 (ABL) [%] | ABL AVG % Activity at 1.0E−08 (ABL) [%] | ABL AVG % Activity at 1.0E−09 (ABL) [%] | ABL AVG % Activity at 1.0E−10 (ABL) [%] | ABL AVG % Activity at 3.0E−06 (ABL) [%] | ABL AVG % Activity at 3.0E−07 (ABL) [%] | ABL AVG % Activity at 3.0E−08 (ABL) [%] | ABL AVG % Activity at 3.0E−09 (ABL) [%] | ABL AVG % Activity at 3.0E−10 (ABL) [%] | IC50 (PDGFRβ) [nM] | PDGFR AVG % Activity at 1.0E−06 (PDGFRβ) [%] | PDGFR AVG % Activity at 1.0E−07 (PDGFRβ) [%] | PDGFR AVG % Activity at 1.0E−08 (PDGFRβ) [%] | PDGFR AVG % Activity at 1.0E−09 (PDGFRβ) [%] | PDGFR AVG % Activity at 1.0E−10 (PDGFRβ) [%] | PDGFR AVG % Activity at 3.0E−06 (PDGFRβ) [%] | PDGFR AVG % Activity at 3.0E−07 (PDGFRβ) [%] | PDGFR AVG % Activity at 3.0E−08 (PDGFRβ) [%] | also measured |
| --- | --- | --- | --- | --- | --- | --- | --- | --- | --- | --- | --- | --- | --- | --- | --- | --- | --- | --- | --- | --- | --- |
| COCCOCCOCCOCCOCCOCCOCCN1CCN(Cc2ccc(C(=O)Nc3ccc(C)c(Nc4nccc(-c5cccnc5)n4)c3)cc2)CC1 [mPEG7-N′-Imatinib] | ≥ 3000 | 69 | 83 | 92 | 96 | 96 | 52 | 78 | 88 | 96 | 97 | 310 | 18 | 76 | 91 | 98 | 95 | 0 | 43 | 91 | PDGFR AVG % Activity at 3.0E−09 (PDGFRβ): 93%; PDGFR AVG % Activity at 3.0E−10 (PDGFRβ): 100%; IC50 (cKIT): 2500 nM; C-kit AVG % Activity at 1.0E−05 (cKIT): 16%; C-kit AVG % Activity at 1.0E−06 (cKIT): 69%; C-kit AVG % Activity at 1.0E−07 (cKIT): 91%; C-kit AVG % Activity at 1.0E−08 (cKIT): 95%; C-kit AVG % Activity at 3.0E−05 (cKIT): 4%; C-kit AVG % Activity at 3.0E−06 (cKIT): 44%; C-kit AVG % Activity at 3.0E−07 (cKIT): 84%; C-kit AVG % Activity at 3.0E−08 (cKIT): 97%; C-kit AVG % Activity at 3.0E−09 (cKIT): 95%; solubility (Thermodynamic solubility): 3000 µg/mL (≈ 3.74 mM); Papp A→B at 120 min, 10 μM [1]: 0.3 ± 0.01 ×10⁻⁶ cm/s; efflux ratio at 120 min, 10 μM [1]: 75.7 |
| COCCOCCOCCOCCOCCOCCOCCOCCOCCNCc1ccc(C(=O)Nc2ccc(C)c(Nc3nccc(-c4cccnc4)n3)c2)cc1 [mPEG9-N-Imatinib] | ≥ 3000 | 77 | 89 | 97 | 96 | 96 | 70 | 85 | 93 | 96 | 96 | 290 | 11 | 65 | 83 | 78 | 89 | 0 | 38 | 75 | PDGFR AVG % Activity at 3.0E−09 (PDGFRβ): 100%; PDGFR AVG % Activity at 3.0E−10 (PDGFRβ): 86%; IC50 (cKIT): 1600 nM; C-kit AVG % Activity at 1.0E−05 (cKIT): 9%; C-kit AVG % Activity at 1.0E−06 (cKIT): 62%; C-kit AVG % Activity at 1.0E−07 (cKIT): 93%; C-kit AVG % Activity at 1.0E−08 (cKIT): 98%; C-kit AVG % Activity at 3.0E−05 (cKIT): 2%; C-kit AVG % Activity at 3.0E−06 (cKIT): 32%; C-kit AVG % Activity at 3.0E−07 (cKIT): 81%; C-kit AVG % Activity at 3.0E−08 (cKIT): 99%; C-kit AVG % Activity at 3.0E−09 (cKIT): 99%; solubility (Thermodynamic solubility): 2700 µg/mL (≈ 3.29 mM); Papp A→B at 120 min, 10 μM [1]: 0.01 ± 0.004 ×10⁻⁶ cm/s; efflux ratio at 120 min, 10 μM [1]: 482 |
| COCCOCCOCCOCCOCCOCCOCCOCCOCCN1CCN(Cc2ccc(C(=O)Nc3ccc(C)c(Nc4nccc(-c5cccnc5)n4)c3)cc2)CC1 [mPEG9-N′-Imatinib] | 3800 | 69 | 84 | 93 | 97 | 97 | 49 | 79 | 89 | 96 | 97 | 340 | 13 | 74 | 95 | 99 | 92 | 0 | 48 | 86 | PDGFR AVG % Activity at 3.0E−09 (PDGFRβ): 100%; PDGFR AVG % Activity at 3.0E−10 (PDGFRβ): 95%; IC50 (cKIT): 550 nM; C-kit AVG % Activity at 1.0E−05 (cKIT): 2%; C-kit AVG % Activity at 1.0E−06 (cKIT): 35%; C-kit AVG % Activity at 1.0E−07 (cKIT): 82%; C-kit AVG % Activity at 1.0E−08 (cKIT): 91%; C-kit AVG % Activity at 3.0E−05 (cKIT): 0%; C-kit AVG % Activity at 3.0E−06 (cKIT): 12%; C-kit AVG % Activity at 3.0E−07 (cKIT): 64%; C-kit AVG % Activity at 3.0E−08 (cKIT): 92%; C-kit AVG % Activity at 3.0E−09 (cKIT): 95%; solubility (Thermodynamic solubility): 2500 µg/mL (≈ 2.81 mM); Papp A→B at 120 min, 10 μM [1]: 0.05 ± 0.02 ×10⁻⁶ cm/s; efflux ratio at 120 min, 10 μM [1]: 359 |
